Source: patent US20040102431A1, “Substituted amino-aza-cycloalkanes useful against malaria” (priority 2000, published 2004)
Like-named read-outs stand apart in the source and are kept apart here. Square brackets hold non-standard residues; d marks the D form. Peptide text beside a SMILES is read from it. * marks the point of attachment. Sta = CC(C)C[C@H](N)[C@@H](O)CC(=O)O; Isovaleryl = CC(C)CC(=O)*

Experiments:
P. falciparum = conditions: cited from earlier work
plasmepsin II = plasmepsin II (Plasmodium falciparum, UniProt P46925); assay: biochemical; conditions: FRET, pH 5, 37° C., 40 min, substrate 1 μM, read-out: IC50 (nM) on plasmepsin II
Sequence of plasmepsin II (P46925 125-453): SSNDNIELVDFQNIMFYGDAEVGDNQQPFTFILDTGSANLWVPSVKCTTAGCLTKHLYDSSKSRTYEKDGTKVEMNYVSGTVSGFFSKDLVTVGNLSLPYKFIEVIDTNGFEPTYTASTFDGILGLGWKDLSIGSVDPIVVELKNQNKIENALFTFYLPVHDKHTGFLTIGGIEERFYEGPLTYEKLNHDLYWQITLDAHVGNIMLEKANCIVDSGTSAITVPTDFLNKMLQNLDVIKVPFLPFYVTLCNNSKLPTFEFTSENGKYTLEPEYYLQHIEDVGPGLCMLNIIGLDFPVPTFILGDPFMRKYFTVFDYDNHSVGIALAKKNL

Row | Compound | IC50 (plasmepsin II; Additional Examples table) | also measured
1 | CC(C)CC(=O)N[C@H](C(=O)N[C@H](C(=O)N[C@@H](CC(C)C)[C@@H](O)CC(=O)N[C@@H](C)C(=O)N[C@@H](CC(C)C)[C@@H](O)CC(=O)O)C(C)C)C(C)C [Pepstatin] (Isovaleryl-VV[Sta]A[Sta]-OH) | – | growth of P. falciparum in red blood cells in vitro (P. falciparum): inhibits the growth
2 | CCCCCc1ccc(C(=O)N(Cc2ccc(OCc3ccccc3)c(OC)c2)C2CCN(Cc3ccccc3)CC2)cc1 [Example 22] | – | IC50 (plasmepsin II; […]): 793 nM
3 | CCCCCc1ccc(C(=O)N(Cc2ccc(OCc3ccccc3)cc2)C2CCN(CCc3ccccc3)CC2)cc1 [Example 112, N-(4-Benzyloxybenzyl)-4-pentyl-N-(1-phenethylpiperidin-4-yl)benzamide] | 761 nM | –
4 | CCCCCc1ccc(C(=O)N(Cc2ccc(-c3ccc(C#N)cc3)cc2)C2CCN(Cc3ccoc3)CC2)cc1 [Example 32] | – | IC50 (plasmepsin II; […]): 18 nM
5 | CCCCOc1ccc(C(=O)N(Cc2ccc(OCc3ccccc3)c(OCc3ccccc3)c2)C2CCN(Cc3ccccc3)CC2)cc1 [Example 11] | – | IC50 (plasmepsin II; […]): 3200 nM
6 | CCCCCc1ccc(C(=O)N(Cc2ccc(OCc3ccccc3)c(OCc3ccccc3)c2)C2CCN(Cc3ccccc3)CC2)cc1 [Example 10] | – | IC50 (plasmepsin II; […]): 1200 nM
7 | CCCCCc1ccc(C(=O)N(Cc2ccc(Oc3ccccc3)cc2)C2CCN(Cc3ccccc3)CC2)cc1 [Example 7] | – | IC50 (plasmepsin II; […]): 462 nM
8 | CCCCCc1ccc(C(=O)N(Cc2ccc(-c3ccccc3)cc2)C2CCN(Cc3ccccc3)CC2)cc1 [Example 14] | – | IC50 (plasmepsin II; […]): 84 nM
9 | CCCCCc1ccc(C(=O)N(Cc2ccc(C(F)(F)F)cc2)C2CCN(Cc3ccccc3)CC2)cc1 [Example 18] | – | IC50 (plasmepsin II; […]): 148 nM
10 | CCCCCc1ccc(C(=O)N(Cc2ccc(-c3cccnc3)cc2)C2CCN(Cc3ccc(O)cc3)CC2)cc1 [N-[1-(4-Hydroxybenzyl)piperidin-4-yl]-4-pentyl-N-(4-pyridin-3-yl-benzyl)benzamide] | 105 nM | –
11 | CCCCCc1ccc(C(=O)N(Cc2ccc(-c3ccc(OC)c(OC)c3)cc2)C2CCN(Cc3ccncc3)CC2)cc1 [Example 41, N-(3′,4′-Dimethoxybiphenyl-4-ylmethyl)-4-pentyl-N-(1-pyridin-4-ylmethylpiperidin-4-yl)benzamide] | 25 nM | –
12 | CCCCCc1ccc(CN(Cc2ccc(C(F)(F)F)cc2)C2CCN(Cc3ccccc3)CC2)cc1 [Example 30] | – | IC50 (plasmepsin II; […]): 695 nM
13 | CCCCCc1ccc(CN(Cc2ccc(-c3ccccc3)cc2)C2CCCN(Cc3ccccc3)CC2)cc1 (racemic) [Example 34] | – | IC50 (plasmepsin II; […]): 1970 nM

The next lines start with results.

Row | IC50 (plasmepsin II; Additional Examples table) | Compound | also measured
14 | 270 nM | C=CCOc1ccc(CN(C(=O)c2ccc(CCCCC)cc2)C2CCN(Cc3ccccc3)CC2)cc1 [Example 90, N-(4-Allyloxybenzyl)-N-(1-benzylpiperidin-4-yl)-4-pentylbenzamide] | –
15 | 79 nM | CCCCCc1ccc(C(=O)N(Cc2ccc(OCc3ccc(F)cc3)cc2)C2CCN(Cc3ccccc3)CC2)cc1 [Example 58, N-(1-Benzyl-piperidin-4-yl)-N-[4-(4-fluoro-benzyloxy)-benzyl]-4-pentyl-benzamide] | –
16 | 839 nM | CCCCCc1ccc(C(=O)N(Cc2ccc(N(CCCC)CCCC)cc2)C2CCN(Cc3ccccc3)CC2)cc1 [Example 115, N-(1-Benzylpiperidin-4-yl)-N-(4-dibutylaminobenzyl)-4-pentyl-benzamide] | –
17 | 28 nM | CCCCCc1ccc(C(=O)N(Cc2ccc(-c3ccc(C#N)cc3)cc2)C2CCN(Cc3ccncc3)CC2)cc1 [Example 42, N-(4′-Cyano-biphenyl-4-ylmethyl)-4-pentyl-N-(1-pyridin-4-ylmethylpiperidin-4-yl)benzamide] | –
18 | 187 nM | CCCCCc1ccc(C(=O)N(Cc2ccc(OC(F)(F)F)cc2)C2CCN(Cc3ccccc3)CC2)cc1 [Example 80, N-(1-Benzylpiperidin-4-yl)-4-pentyl-N-(4-trifluoromethoxybenzyl)benzamide] | –
19 | 294 nM | CCCCCc1ccc(CN(Cc2ccc(-c3ccc(C#N)cc3)cc2)C2CCN(Cc3ccccc3)CC2)cc1 [Example 95, 4′-{[(1-Benzylpiperidin-4-yl)-(4-pentylbenzyl)amino]methyl}-biphenyl-4-carbonitrile] | –
20 | 458 nM | CCCCCc1ccc(C(=O)N(Cc2ccc(OCc3ccccc3)cc2)C2CCCN(Cc3ccccc3)C2)cc1 (racemic) [Example 105, (rac.)-N-(4-Benzyloxybenzyl)-N-(1-benzylpiperidin-3-yl)-4-pentyl-benzamide] | –
21 | 634 nM | CCCCCc1ccc(CN(Cc2ccc(-c3cccc(C(F)(F)F)c3)cc2)C2CCN(Cc3ccccc3)CC2)cc1 [Example 108, (1-Benzylpiperidin-4-yl)-(4-pentyl-benzyl)-(3′-trifluoromethyl-biphenyl-4-ylmethyl)amine] | –
22 | 284 nM | CCCCCc1ccc(C(=O)N(Cc2ccc3c(c2)OCO3)C2CCN(Cc3ccccc3)CC2)cc1 [Example 93, N-Benzo[1,3]dioxol-5-ylmethyl-N-(1-benzylpiperidin-4-yl)-4-pentyl-benzamide] | –
23 | 260 nM | CCCCCc1ccc(C(=O)N(Cc2ccc(-c3ccc(F)cc3)cc2)C2CCN(Cc3ccccc3)CC2)cc1 [Example 89, N-(1-Benzylpiperidin-4-yl)-N-(4′-fluorobiphenyl-4-ylmethyl)-4-pentylbenzamide] | –
24 | 71 nM | CCCCCc1ccc(C(=O)N(Cc2ccc(-c3ccccc3)cc2)C2CCN(Cc3ccc(OC)cc3)CC2)cc1 [Example 56, N-Biphenyl-4-ylmethyl-N-[1-(4-methoxybenzyl)piperidin-4-yl]-4-pentylbenzamide] | –
25 | 57 nM | CCCCCc1ccc(C(=O)N(Cc2ccc(-c3ccc(OCCO)cc3)cc2)C2CCN(Cc3ccoc3)CC2)cc1 [Example 51, N-(1-Furan-3-ylmethypiperidin-4-yl)-N-[4′-(2-hydroxyethoxy)biphenyl-4-ylmethyl]-4-pentylbenzamide] | –
26 | 817 nM | CCCCCc1ccc(C(=O)N(Cc2ccc(OCc3ccccc3)cc2)[C@@H]2CCN(Cc3ccccc3)C2)cc1 [Example 114, N-(4-Benzyloxybenzyl)-N-((3R)-1-benzylpyrrolidin-3-yl)-4-pentyl-benzamide] | –
27 | 461 nM | CCCCCc1ccc(C(=O)N(Cc2ccc(-c3ccc(N(C)C)cc3)cc2)C2CCN(Cc3ccccc3)CC2)cc1 [Example 106, N-(1-Benzylpiperidin-4-yl)-N-(4′-dimethylaminobiphenyl-4-ylmethyl)-4-pentylbenzamide] | –
28 | 87 nM | CCCCCc1ccc(C(=O)N(Cc2ccc(-c3ccccc3F)cc2)C2CCN(Cc3ccoc3)CC2)cc1 [Example 60, N-(2′-Fluorobiphenyl-4-ylmethyl)-N-(1-furan-3-ylmethylpiperidin-4-yl)-4-pentylbenzamide] | –
29 | 140 nM | CCCCCc1ccc(C(=O)N(Cc2ccc(-c3cccc(C)c3)cc2)C2CCN(Cc3ccccc3)CC2)cc1 [Example 74, N-(1-Benzylpiperidin-4-yl)-N-(3′-methylbiphenyl-4-ylmethyl)-4-pentylbenzamide] | –
30 | 48 nM | CCCCCc1ccc(C(=O)N(Cc2ccc(-c3ccc(OC)c(OC)c3)cc2)C2CCN(Cc3ccccc3)CC2)cc1 [Example 48, N-(1-Benzylpiperidin-4-yl)-N-(3′,4′-dimethoxybiphenyl-4-ylmethyl)-4-pentylbenzamide] | –
31 | 153 nM | CCCCCc1ccc(C(=O)N(Cc2ccc(C(F)(F)F)c(F)c2)C2CCN(Cc3ccccc3)CC2)cc1 [Example 77, N-(1-Benzylpiperidin-4-yl)-N-(3-fluoro-4-trifluoromethylbenzyl)-4-pentylbenzamide] | –
32 | 42 nM | CCCCCc1ccc(C(=O)N(Cc2ccc(-c3cccnc3)cc2)C2CCN(Cc3ccsc3)CC2)cc1 [Example 45, 4-Pentyl-N-(4-pyridin-3-yl-benzyl)-N-(1-thiophen-3-ylmethylpiperidin-4-yl)benzamide] | –
